Key:
[1] = target: aurora B (Homo sapiens, UniProt Q96GD4); assay: radioisotope-based P81 filter-binding assay, aurora B kinase; assay type: biochemical; settings: for IC50: averaged from two independent dose-response curves, read-out: Enzyme assay IC50 Aur B
Experimental: (§1) Compounds of formula (I)-(IV) were evaluated for abilities in inhibiting protein kinases aurora B and FLT-3 activity using radioisotope-based P81 filter-binding assay (Table 1).

[2] = system: A549 human lung carcinoma cells; assay: anti-proliferation, SRB colorimetric assay, A549; assay type: cell-based; settings: concentration required for 50% growth inhibition, read-out: IC50 (μM, mean ± S.D.)
[3] = target: T1, FLT-3 (Homo sapiens, UniProt P36888); assay: radioisotope-based P81 filter-binding assay, FLT-3 kinase; assay type: biochemical; settings: for IC50: averaged from two independent dose-response curves, read-out: Enzyme assay IC50 FLT-3
T1 sequence (P36888 27-993): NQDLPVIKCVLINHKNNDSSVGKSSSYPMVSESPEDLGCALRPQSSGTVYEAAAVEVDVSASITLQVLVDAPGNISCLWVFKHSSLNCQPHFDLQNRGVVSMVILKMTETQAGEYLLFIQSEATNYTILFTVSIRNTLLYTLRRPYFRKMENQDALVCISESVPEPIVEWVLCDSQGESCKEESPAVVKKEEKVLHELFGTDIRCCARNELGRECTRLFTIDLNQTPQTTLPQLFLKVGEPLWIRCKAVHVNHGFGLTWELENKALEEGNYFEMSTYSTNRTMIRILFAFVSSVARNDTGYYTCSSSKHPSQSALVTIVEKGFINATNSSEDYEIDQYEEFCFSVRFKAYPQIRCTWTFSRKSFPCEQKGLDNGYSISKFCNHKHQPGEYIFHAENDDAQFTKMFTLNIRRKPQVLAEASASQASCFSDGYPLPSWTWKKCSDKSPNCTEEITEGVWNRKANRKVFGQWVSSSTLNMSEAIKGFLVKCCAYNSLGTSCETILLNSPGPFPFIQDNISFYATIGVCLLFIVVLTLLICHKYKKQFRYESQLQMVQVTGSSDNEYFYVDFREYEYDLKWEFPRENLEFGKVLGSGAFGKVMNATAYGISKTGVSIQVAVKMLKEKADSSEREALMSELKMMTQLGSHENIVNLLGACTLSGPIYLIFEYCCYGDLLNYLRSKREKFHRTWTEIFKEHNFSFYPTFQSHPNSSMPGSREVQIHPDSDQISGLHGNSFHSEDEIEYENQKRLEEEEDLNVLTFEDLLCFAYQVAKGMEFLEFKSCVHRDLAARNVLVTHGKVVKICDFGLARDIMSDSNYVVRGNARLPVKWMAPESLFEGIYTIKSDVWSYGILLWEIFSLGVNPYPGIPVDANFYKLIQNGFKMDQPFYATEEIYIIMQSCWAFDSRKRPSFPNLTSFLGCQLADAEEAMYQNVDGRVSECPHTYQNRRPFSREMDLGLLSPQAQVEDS
Experimental: as §1

[4] = system: HepG2 human hepatocellular carcinoma cells; assay: anti-proliferation, SRB colorimetric assay, HepG2; assay type: cell-based; settings: concentration required for 50% growth inhibition, read-out: IC50 (μM, mean ± S.D.)
Excerpt: HCT116 human colorectal carcinoma cells (Table 3), HepG2 human hepatocellular carcinoma cells (Table 4), and MV4-11 human acute myelomonocytic leukemia cells (Table 5).

[5] = system: MV4-11 human acute myelomonocytic leukemia cells; assay: anti-proliferation, SRB colorimetric assay, MV4-11; assay type: cell-based; settings: concentration required for 50% growth inhibition
Experimental: HCT116 human colorectal carcinoma cells (Table 3), HepG2 human hepatocellular carcinoma cells (Table 4), and MV4-11 human acute myelomonocytic leukemia cells (Table 5). Cells were treated with the test compound and the concentration required for 50% growth inhibition (IC50) determined by sulfomodamine B (SRB) colorimetric assay.

Sequence of aurora B (Q96GD4 whole entry): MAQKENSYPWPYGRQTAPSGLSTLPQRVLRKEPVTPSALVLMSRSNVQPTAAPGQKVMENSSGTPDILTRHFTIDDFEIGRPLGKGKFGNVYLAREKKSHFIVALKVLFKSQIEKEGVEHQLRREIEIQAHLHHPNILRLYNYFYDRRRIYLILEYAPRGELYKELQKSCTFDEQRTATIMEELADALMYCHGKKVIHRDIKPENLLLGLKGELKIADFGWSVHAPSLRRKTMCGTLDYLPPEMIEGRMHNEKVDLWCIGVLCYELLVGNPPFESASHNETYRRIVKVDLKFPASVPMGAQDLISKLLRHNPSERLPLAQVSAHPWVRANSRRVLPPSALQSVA

Row | SMILES | IC50 [1] [nM] | IC50 [2] [µM] | IC50 [3] [nM] | IC50 [4] [µM] | IC50 [5] [nM] | melting point | inhibition at 1 µM ([1]; compound at 1.0 μM, mean values (n=2), read-out: percent inhibition of enzyme catalytic activity, Aur B (numbers in parentheses)) [%] | inhibition at 1 µM ([3]; compound at 1.0 μM, mean values (n=2), read-out: percent inhibition of enzyme catalytic activity, FLT-3 (numbers in parentheses)) [%]
1 | Cc1[nH]c(/C=C2\C(=O)Nc3cc(NC(=O)NC(=O)c4ccc(Cl)c(C(F)(F)F)c4)ccc32)c(C)c1CCC(=O)O [D37, (Z)-3-(5-((6-(3-(4-chloro-3-(trifluoromethyl)benzoyl)ureido)-2-oxo-indolin-3-ylidene)methyl)-2,4-dimethyl-1H-pyrrol-3-yl)propanoic acid] | 1.6 | – | 2.4 | 0.09 ± 0.04 | – | – | – | –
2 | Cc1[nH]c(/C=C2\C(=O)Nc3cc(NC(=O)c4c[nH]cc(-c5ccc(F)cc5)c4=O)ccc32)c(C)c1C(=O)N1CCN(C)CC1 [D149, (Z)—N-(3-((3,5-dimethyl-4-(4-methylpiperazine-1-carbonyl)-1H-pyrrol-2-yl)methylene)-2-oxoindolin-6-yl)-5-(4-fluorophenyl)-4-oxo-1,4-dihydropyridine-3-carboxamide] | 70.5 | 0.55 ± 0.05 | 1.4 | 0.65 ± 0.11 | 0.05 | 283 °C (dec.) | – | –
3 | CN(C)c1ccc(C(=O)NC(=O)Nc2ccc3c(c2)NC(=O)/C3=C\c2ccc[nH]2)cc1 [D31, (Z)—N-(3-((1H-pyrrol-2-yl)methylene)-2-oxoindolin-6-ylcarbamoyl)-4-(dimethylamino)benzamide] | 159 | – | 134 | 0.63 ± 0.02 | – | 285 to 290 °C (dec.) | – | –
4 | O=C(NC(=O)c1ccc(C(F)(F)F)cc1)Nc1ccc2c(c1)NC(=O)/C2=C\c1ccc[nH]1 [D27, (Z)—N-(3-((1H-pyrrol-2-yl)methylene)-2-oxoindolin-6-ylcarbamoyl)-4-(trifluoromethyl)benzamide] | 40.9 | – | > 1000 | 0.86 ± 0.02 | – | > 300 °C | – | –
5 | O=C(NC(=O)c1ccc(Cl)c(Cl)c1)Nc1ccc2c(c1)NC(=O)/C2=C\c1ccc[nH]1 [D26, (Z)—N-(3-((1H-pyrrol-2-yl)methylene)-2-oxoindolin-6-ylcarbamoyl)-3,4-dichlorobenzamide] | 7.7 | – | > 1000 | 0.63 ± 0.04 | 1.13 | 295 to 300 °C (dec.) | – | –
6 | Cc1[nH]c(/C=C2\C(=O)Nc3cc(NC(=O)NC(=O)c4ccc(Cl)c(C(F)(F)F)c4)ccc32)c(C)c1C(=O)O [D36, (Z)-5-((6-(3-(4-chloro-3-(trifluoromethyl)benzoyl)ureido)-2-oxoindolin-3-ylid-ene)methyl)-2,4-dimethyl-1H-pyrrol-3-carboxylic acid] | 10.7 | – | 51.6 | 0.12 ± 0.07 | – | 270 to 275 °C | – | –
7 | COc1ccc(C(=O)NC(=O)Nc2cccc3c2NC(=O)/C3=C\c2ccc[nH]2)cc1 [D16, (Z)—N-(3-((1H-pyrrol-2-yl)methylene)-2-oxoindolin-7-ylcarbamoyl)-4-methoxybenzamide] | – | 0.99 ± 0.08 | – | 0.84 ± 0.01 | – | 253 to 258 °C (dec.) | 7.3 | 6.9
8 | Cc1[nH]c(/C=C2\C(=O)Nc3cc(NC(=O)N4CCN(C5CC5)C4=O)ccc32)c(C)c1CC(=O)O [D97, (Z)-2-(5-((6-(3-cyclopropyl-2-oxoimidazolidine-1-carboxamido)-2-oxoindolin-3-ylidene)methyl)-2,4-dimethyl-1H-pyrrol-3-yl)acetic acid] | 2.7 | 0.83 ± 0.04 | 113 | 0.87 ± 0.05 | – | – | – | –
9 | Cc1cc(C)c(/C=C2\C(=O)Nc3cc(NC(=O)c4c[nH]cc(-c5ccc(F)cc5)c4=O)ccc32)[nH]1 [D140, (Z)—N-(3-((3,5-dimethyl-1H-pyrrol-2-yl)methylene)-2-oxoindolin-6-yl)-5-(4-fluorophenyl)-4-oxo-1,4-dihydropyridine-3-carboxamide] | 179 | – | 86.6 | 0.56 ± 0.02 | 12.8 | > 300 °C | – | –
10 | O=C1Nc2cc(NC(=O)c3c[nH]cc(-c4ccccc4)c3=O)ccc2/C1=C/c1ccc[nH]1 [D127] | 38.8 | 0.49 ± 0.03 | 27.7 | – | 7.18 | > 300 °C | – | –
11 | O=C(NC(=O)c1ccccc1)Nc1ccc2c(c1)NC(=O)/C2=C\c1ccc[nH]1 [D24, (Z)—N-(3-((1H-pyrrol-2-yl)methylene)-2-oxoindolin-6-ylcarbamoyl)benzamide] | 5.3 | – | > 10000 | 0.89 ± 0.03 | – | 290 to 295 °C (dec.) | – | –
12 | COc1ccc(C(=O)NC(=O)Nc2ccc3c(c2)NC(=O)/C3=C\c2[nH]c(C)c(C(=O)O)c2C)cc1 [D41, (Z)-5-((6-(3-(4-methoxybenzoyl)ureido)-2-oxoindolin-3-ylidene)-methyl)-2,4-di-methyl-1H-pyrrole-3-carboxylic acid] | 1.9 | 0.48 ± 0.05 | 180 | 0.73 ± 0.13 | – | – | – | –
13 | COc1ccc(-n2cccc(C(=O)Nc3ccc4c(c3)NC(=O)/C4=C\c3ccc[nH]3)c2=O)cc1 [D106, (Z)—N-(3-((1H-pyrrol-2-yl)methylene)-2-oxoindolin-6-yl)-1-(4-methoxyphenyl)-2-oxo-1,2-dihydropyridine-3-carboxamide] | 209 | – | > 1000 | – | 12.6 | > 300 °C | – | –

The remaining compounds from weak to strong by IC50 [1], led by results:

Row | IC50 [1] [nM] | IC50 [2] [µM] | IC50 [3] [nM] | IC50 [4] [µM] | IC50 [5] [nM] | melting point | inhibition at 1 µM ([1]; compound at 1.0 μM, mean values (n=2), read-out: percent inhibition of enzyme catalytic activity, Aur B (numbers in parentheses)) [%] | inhibition at 1 µM ([3]; compound at 1.0 μM, mean values (n=2), read-out: percent inhibition of enzyme catalytic activity, FLT-3 (numbers in parentheses)) [%] | SMILES
14 | 791 | 0.7 ± 0.2 | 8.6 | 0.9 ± 0.2 | 0.02 | 295 to 296 °C | – | – | O=C1Nc2cc(NC(=O)c3cccn(-c4ccc(F)cc4)c3=O)ccc2/C1=C/c1ccc[nH]1 [D107, (Z)—N-(3-((1H-pyrrol-2-yl)methylene)-2-oxoindolin-6-yl)-1-(4-fluorophenyl)-2-oxo-1,2-dihydropyridine-3-carboxamide]
15 | 128 | 0.45 ± 0.07 | 38.1 | – | 1.83 | > 300 °C | – | – | O=C1Nc2cc(NC(=O)c3c[nH]cc(-c4ccc(F)cc4)c3=O)ccc2/C1=C/c1ccc[nH]1 [D129, (Z)—N-(3-((1H-pyrrol-2-yl)methylene)-2-oxoindolin-6-yl)-5-(4-fluorophenyl)-4-oxo-1,4-dihydropyridine-3-carboxamide]
16 | 29.8 | – | – | 0.86 ± 0.02 | – | 276 to 281 °C (dec.) | – | – | COc1cc(OC)cc(C(=O)NC(=O)Nc2ccc3c(c2)NC(=O)/C3=C\c2ccc[nH]2)c1 [D30]
17 | 25 | 0.69 ± 0.05 | – | – | – | – | – | – | O=C(CC(=O)Nc1ccc2c(c1)NC(=O)/C2=C\c1ccc[nH]1)Nc1ccc(F)cc1 [D75, (Z)—N^1-(3-((1H-pyrrol-2-yl)methylene)-2-oxoindolin-6-yl)-N^3-(4-fluorophenyl)malonamide]
18 | 18.4 | – | > 1000 | 0.93 ± 0.01 | – | 290 to 295 °C (dec.) | – | – | Cc1ccc(C(=O)NC(=O)Nc2ccc3c(c2)NC(=O)/C3=C\c2ccc[nH]2)cc1 [D29, (Z)—N-(3-((1H-pyrrol-2-yl)methylene)-2-oxoindolin-6-ylcarbamoyl)-4-methylbenzamide]
19 | 14.9 | – | 334 | 0.96 ± 0.03 | 6.13 | – | – | – | COc1ccc(C(=O)NC(=O)Nc2ccc3c(c2)NC(=O)/C3=C\c2ccc[nH]2)cc1 [D15]
20 | 6.5 | – | 676 | 0.94 ± 0.03 | 6.14 | 280 to 285 °C (dec.) | – | – | O=C(NC(=O)c1ccc(Cl)cc1)Nc1ccc2c(c1)NC(=O)/C2=C\c1ccc[nH]1 [D25, (Z)—N-(3-((1H-pyrrol-2-yl)methylene)-2-oxoindolin-6-ylcarbonamoyl)-4-chlorobenzamide]
21 | 3.1 | – | 506 | 0.65 ± 0.05 | – | > 300 °C | – | – | Cc1[nH]c(/C=C2\C(=O)Nc3cc(NC(=O)NC(=O)c4ccc(Cl)cc4)ccc32)c(C)c1C(=O)O [D33, (Z)-5-((6-(3-(4-chlorabenzoyl)ureido)-2-oxoindolin-3-ylidene)-methyl)-2,4-dimethyl-1H-pyrrole-3-carboxylic acid]

Reference: US8946282B2, “Indolin-2-one derivatives as protein kinase inhibitors” (Annji Pharmaceutical Co., Ltd., priority 2012, dated 2015)
